How the values were obtained:
thromboxane synthetase [1] = biological target: T1, thromboxane synthetase (Homo sapiens, UniProt P24557); experiment: Test Example 2: Thromboxane synthetase inhibiting activity (human PRP, thrombin, RIA); assay type: cell-based; conditions: for IC50: 20 U/ml thrombin, RIA, read-out: Inhibition of thromboxane A2 synthesis (IC50); for thromboxane synthetase inhibiting activity (in words): thrombin
T1 sequence (P24557 1-533): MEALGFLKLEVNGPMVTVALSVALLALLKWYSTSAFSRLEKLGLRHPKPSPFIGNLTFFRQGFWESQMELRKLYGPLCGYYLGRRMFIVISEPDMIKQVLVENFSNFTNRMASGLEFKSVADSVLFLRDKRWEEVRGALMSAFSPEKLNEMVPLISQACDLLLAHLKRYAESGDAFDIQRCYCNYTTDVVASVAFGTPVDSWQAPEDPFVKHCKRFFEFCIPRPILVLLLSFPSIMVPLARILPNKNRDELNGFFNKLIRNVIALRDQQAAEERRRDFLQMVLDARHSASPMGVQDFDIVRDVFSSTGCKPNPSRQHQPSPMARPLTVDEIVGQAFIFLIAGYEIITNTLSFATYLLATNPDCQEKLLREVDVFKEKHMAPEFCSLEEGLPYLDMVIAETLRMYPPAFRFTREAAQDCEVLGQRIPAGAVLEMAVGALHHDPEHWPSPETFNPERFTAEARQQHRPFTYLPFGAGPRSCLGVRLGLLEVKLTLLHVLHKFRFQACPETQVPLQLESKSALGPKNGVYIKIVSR
Experimental: (§1) A blood sample was collected from human fore arm using a syringe containing 3.8% sodium citrate solution (1/10 volume of the blood to be collected) and centrifuged to obtain platelet rich plasma (PRP; 3 ×10^5 platelets/μ1).
(§2) A 200 μ1 portion of the thus prepared PRP and 23.75 µl of physiological saline were put in a cuvette, the cuvette was set into the aforementioned aggregometer and the contents in the cuvette were incubated at 37° C. for 2 minutes. Thereafter, 1.25 μ1 dimethyl sulfoxide (DMSO) solution of each of the N-(3-pyridylalkyl)sulfonamide derivatives obtained in Examples 1, 3 and 7 was put in the cuvette and incubated for 3 minutes, followed by the addition of 20 U/ml solution of thrombin to cause platelet aggregation. A portion of the supernatant after aggregation reaction was mixed with diethyl ether/methanol/0.2M citric acid (30:4:1 ), and the thus formed thromboxane A2 was extracted and its quantity was analyzed by RIA using a kit of Amersham.

[2] = tested on: platelet aggregation caused by U-46619; experiment: Test Example 1: Platelet aggregation inhibiting activity (human PRP, U-46619); assay type: cell-based; conditions: for IC50: Platelet, 320 nM U-46619, 37° C., read-out: Inhibitory effect against platelet aggregation caused by U-46619 (IC50); for platelet aggregation inhibiting activity (in words): U-46619
Experimental: as §1
(§3) Platelet aggregation was measured using an aggregometer (Hematracer VI, Niko Bioscience Co., Ltd.) by putting 200 µl of the thus prepared PRP and 23.75 µl of physiological saline in a cuvette, setting the cuvette into the aggregometer and incubating the contents at 37° C. for 2 minutes, adding 1.25 μ1 dimethyl sulfoxide (DMSO) solution of each of the N-(3-pyridylalkyl)sulfonamide derivatives obtained in Examples 1, 3, 4, 6 and 8 and incubating for 3 minutes, and then adding U-46619 (Cayman Chemical Co., Inc.) which is a stable PGG2/ H2 derivative having a strong platelet aggregation causing activity.
In this instance, the term "IC50 "as used herein means concentration of the N-(3-pyridylalkyl)sulfonamide derivative of the present invention required to inhibit 50% of the platelet agglutination when platelet aggregation without introducing the inventive derivative was defined as 100%.

[3] = tested on: tracheal smooth muscle contraction caused by the U-46619; experiment: Test Example 3: Competitive activity against TXA2.PGH2 (tracheal smooth muscle contraction caused by U-46619); assay type: cell-based, Hartley guinea pig; conditions: guinea pig trachea
Experimental: In vitro competitive activity (IC50) of the derivative of the present invention against TXA2· PGH2 was measured as follows.
(§4) Sections of tracheae excised from Hartley guinea pig males of 300 to 500 g in weight were suspended with a load of 0.3 g in Tyrode solution (30° C.) contained in a Magnus vessel which was aerated with a mixed gas system of 95% oxygen and 5% carbon dioxide. After about 1 hour of stabilization, U-46619 (a TXA2· PGH2 analog, manufactured by Cayman Chemical Co., Inc.) was added to the solution in a concentration of 10^-7 M. Thereafter, effect of the addition of the inventive N-(3-pyridylalkyl)sulfonamide derivative obtained in Example 4 on the tracheal smooth muscle contraction caused by the U-46619 was measured and the IC50 value was calculated.

[4] = tested on: platelet aggregation caused by U-46619; experiment: Test Examples 6: Platelet aggregation inhibiting activity (human PRP, U-46619); assay type: cell-based; conditions: for IC50: Platelet, 320 nM U-46619, 37° C., read-out: Inhibitory effect against platelet aggregation caused by U-46619 (IC50); for platelet aggregation inhibiting activity (in words): U-46619
Experimental: A blood sample was collected from human fore arm using a syringe containing 3.8% sodium citrate solution (1/10 volume of the blood to be collected) and centrifuged to obtain platelet rich plasma (PRP; 3×10^5 platelets/μl).
as §3, with “200 μof” for “200 µl of”, “23.75 μl” for “23.75 µl”, “1.25 μl” for “1.25 μ1”, “Examples 35, 36, 37” for “Examples 1, 3, 4, 6”, “and 42” for “and 8”, “stable PGG2 /H2” for “stable PGG2/ H2”
In this instance, the term "IC50 " as used herein means concentration of the N-(3-pyridylalkyl)sulfonamide derivative of the present invention required to inhibit 50% of the platelet aggregation when platelet aggregation without introducing the inventive derivative was defined as 100%.

thromboxane synthetase [5] = biological target: T1, thromboxane synthetase; experiment: Test Example 7: Thromboxane synthetase inhibiting activity (human PRP, thrombin, RIA); assay type: cell-based; conditions: for IC50: 20 U/ml thrombin, RIA, read-out: Inhibition of thromboxane A2 synthesis (IC50); for thromboxane synthetase inhibiting activity (in words): thrombin
Experimental: A blood sample was collected from human fore arm using a syringe containing 3.8% sodium citrate solution (1/10 volume of the blood to be collected) and centrifuged to obtain platelet rich plasma (PRP; 3×10^5 platelets/μl ).
as §2, with “200 μl” for “200 μ1”, “23.75 μl” for “23.75 µl”, “Examples 36, 37, 38” for “Examples 1, 3”, “and 40” for “and 7”, “acid (30:4:1),” for “acid (30:4:1 ),”

[6] = tested on: tracheal smooth muscle contraction caused by the U-46619; experiment: Test Examples 8: Competitive activity against TXA2.PGH2 (tracheal smooth muscle contraction caused by U-46619); assay type: cell-based, Hartley guinea pig; conditions: guinea pig trachea
Experimental: In vitro competitive activity (IC50) of the derivative of the present invention against TXA2 ·PGH2 was measured as follows.
as §4, with “TXA2 ·PGH2” for “TXA2· PGH2”, “Inc. )” for “Inc.)”

[7] = Cavia porcellus, U-46619 10^-7 M, in vitro

SMILES	IC50 (thromboxane synthetase [1]) [µM]	IC50 [2] [µM]	platelet aggregation inhibiting activity (in words) [2]	IC50 (thromboxane synthetase [5]) [µM]	thromboxane synthetase inhibiting activity (in words) (thromboxane synthetase [5])	also measured
CCOC(=O)COc1ccc(C(NS(=O)(=O)c2ccc(Cl)cc2)c2cccnc2)cc1 (stereo not drawn) [Example 1, ethyl 4-[4-chlorobenzenesulfonamide-(3-pyridyl)methyl]phenyloxyacetate]	0.037	96	markedly high platelet aggregation inhibiting activity			thromboxane synthetase inhibiting activity (in words) (thromboxane synthetase [1]): excellent thromboxane synthetase inhibiting activity
CCOC(=O)COc1ccc(C(CNS(=O)(=O)c2ccc(Cl)cc2)c2cccnc2)cc1 (stereo not drawn) [Example 4, ethyl 4-[2-(4-chlorobenzenesulfonamido)-1-(3-pyridyl)ethyl]phenyloxyacetate]	0.033	51	markedly high platelet aggregation inhibiting activity			in vitro competitive activity against TXA2.PGH2 (in words) ([3]; U-46619): excellent in vitro competitive activity
O=C(O)COc1ccc(C(CNS(=O)(=O)c2ccc(Cl)cc2)c2cccnc2)cc1 (stereo not drawn) [Example 5, 4-[2-(4-chlorobenzenesulfonamido)-1-(3-pyridyl)ethyl]phenyloxyacetic acid]		16	markedly high platelet aggregation inhibiting activity			IC50 [3, 7]: 6.7 µM
O=C(O)COc1ccc(C(CCNS(=O)(=O)c2ccc(Cl)cc2)c2cccnc2)cc1 (stereo not drawn) [Example 7, 4-[3-(4-chlorobenzenesulfonamido)-1-(3-pyridyl)propyl]phenyloxyacetic acid]		30	markedly high platelet aggregation inhibiting activity			thromboxane synthetase inhibiting activity (in words) (thromboxane synthetase [1]): excellent thromboxane synthetase inhibiting activity
O=C(O)COc1ccc(C(CCNS(=O)(=O)c2ccc(Cl)cc2)Cc2cccnc2)cc1 (stereo not drawn) [Example 8, 4-[1-(4-chlorobenzenesulfonamido)-4-(3-pyridyl)-3-butyl]phenyloxyacetic acid]	4.3					
C/C(=C\c1ccc(C(CNS(=O)(=O)c2ccc(Cl)cc2)Cc2cccnc2)cc1)C(=O)O (stereo not drawn) [Example 36, 4-[1-(4-chlorobenzenesulfonamido)-3-(3-pyridyl)-2-propyl]-α-methylcinnamic acid]				8.3	excellent thromboxane synthetase inhibiting activity	IC50 [4]: 71 µM; platelet aggregation inhibiting activity (in words) [4]: markedly high platelet aggregation inhibiting activity
CCOC(=O)/C(C)=C/c1ccc(C(CNS(=O)(=O)c2ccc(Cl)cc2)Cc2cccnc2)cc1 (stereo not drawn) [Example 37, ethyl 4-[1-(4-chlorobenzenesulfonamido)-3-(3-pyridyl)-2-propyl]-α-methylcinnamate]				8.9	excellent thromboxane synthetase inhibiting activity	IC50 [4]: 66 µM; platelet aggregation inhibiting activity (in words) [4]: markedly high platelet aggregation inhibiting activity; IC50 [6, 7]: 0.088 µM; in vitro competitive activity against TXA2.PGH2 (in words) ([6]; U-46619): excellent in vitro competitive
CCOC(=O)/C(C)=C/c1ccc(C(CNS(=O)(=O)c2ccc(Cl)cc2)c2cccnc2)cc1 (stereo not drawn) [Example 40, ethyl 4-[2-(4-chlorobenzenesulfonamido)-1-(3-pyridyl)ethyl]-α-methylcinnamate]				1.5	excellent thromboxane synthetase inhibiting activity	

Source: patent US5374641A, “N-(3-pyridylalkyl)sulfonamide compounds which have useful pharmaceutical activity” (Terumo Kabushiki Kaisha, priority 1991, dated 1994)
